Source: US12510533B2, “Methods for treating multiple myeloma and the use of companion biomarkers for 4-(4-(4-(((2-(2,6-dioxopiperidin-3-yl)-1-oxoisoindolin-4-yl)oxy)methyl)benzyl)piperazin-1-yl)-3-fluorobenzonitrile” (Celgene Corporation, priority 2018, dated 2025)

Tests used:
[1] = test system: tumor necrosis factor alpha (TNF-α); assay: TNF-α production by TCR-activated healthy PBMCs; format: cell-based, human; conditions: 24 hours
Experimental: (§1) FIG. 21A-FIG. 21C illustrate that Compound 2 is a potent inducer of effector cytokines. […] (FIG. 21A) IL-2, (FIG. 21B) IFN-γ, and (FIG. 21C) TNF-α. Data shown are an average from three or four donors and are represented as fold change over DMSO control; error bars represent standard error of the mean (SEM).
(§2) The immunomodulatory activity of Compound 2 on T cell receptor (TCR)-activated healthy PBMCs was assessed. […] This increased in cytokine secretion was evident as early as 24 hours after introduction of Compound 2 with the peak of the effector cytokine production induced by Compound 2 being 5.5-fold for IL-2, 4.5-fold for interferon gamma (IFN-γ), and 2-fold for tumor necrosis factor alpha (TNF-α) above the vehicle control (FIG. 21A-FIG. 21C, respectively).

Ikaros [2] = target: T1, Ikaros (Homo sapiens, UniProt Q13422+Q96SW2); assay: Phase 1 study, Ikaros expression by flow cytometry in CD3+ T cells; format: in vivo; design: The effects of Compound 2 on the degradation of Ikaros in CD4+ and CD8+ T cells; endogenous in cells; CD34+ bone marrow cells of healthy donors; CD3+ T cells of multiple myeloma patients; conditions: QD days 1-10, 15-24/28 and BID days 1-3, 15-17/28; recovered during dosing interruptions
T1 sequence (Q13422 whole entry): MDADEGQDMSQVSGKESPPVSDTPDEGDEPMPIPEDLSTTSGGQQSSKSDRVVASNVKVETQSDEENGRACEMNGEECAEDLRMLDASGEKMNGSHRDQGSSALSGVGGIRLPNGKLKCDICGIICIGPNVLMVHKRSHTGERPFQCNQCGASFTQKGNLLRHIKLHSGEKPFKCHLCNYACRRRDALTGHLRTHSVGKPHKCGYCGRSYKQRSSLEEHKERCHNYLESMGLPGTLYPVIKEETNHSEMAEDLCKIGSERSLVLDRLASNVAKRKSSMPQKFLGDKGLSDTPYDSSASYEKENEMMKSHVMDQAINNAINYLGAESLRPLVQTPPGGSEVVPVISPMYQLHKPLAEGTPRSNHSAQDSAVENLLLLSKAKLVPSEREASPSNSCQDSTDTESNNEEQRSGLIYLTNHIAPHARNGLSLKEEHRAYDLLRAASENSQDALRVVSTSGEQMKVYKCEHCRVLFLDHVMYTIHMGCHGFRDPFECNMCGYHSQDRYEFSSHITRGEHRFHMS
T1 sequence (Q16531 2-1140, further chain): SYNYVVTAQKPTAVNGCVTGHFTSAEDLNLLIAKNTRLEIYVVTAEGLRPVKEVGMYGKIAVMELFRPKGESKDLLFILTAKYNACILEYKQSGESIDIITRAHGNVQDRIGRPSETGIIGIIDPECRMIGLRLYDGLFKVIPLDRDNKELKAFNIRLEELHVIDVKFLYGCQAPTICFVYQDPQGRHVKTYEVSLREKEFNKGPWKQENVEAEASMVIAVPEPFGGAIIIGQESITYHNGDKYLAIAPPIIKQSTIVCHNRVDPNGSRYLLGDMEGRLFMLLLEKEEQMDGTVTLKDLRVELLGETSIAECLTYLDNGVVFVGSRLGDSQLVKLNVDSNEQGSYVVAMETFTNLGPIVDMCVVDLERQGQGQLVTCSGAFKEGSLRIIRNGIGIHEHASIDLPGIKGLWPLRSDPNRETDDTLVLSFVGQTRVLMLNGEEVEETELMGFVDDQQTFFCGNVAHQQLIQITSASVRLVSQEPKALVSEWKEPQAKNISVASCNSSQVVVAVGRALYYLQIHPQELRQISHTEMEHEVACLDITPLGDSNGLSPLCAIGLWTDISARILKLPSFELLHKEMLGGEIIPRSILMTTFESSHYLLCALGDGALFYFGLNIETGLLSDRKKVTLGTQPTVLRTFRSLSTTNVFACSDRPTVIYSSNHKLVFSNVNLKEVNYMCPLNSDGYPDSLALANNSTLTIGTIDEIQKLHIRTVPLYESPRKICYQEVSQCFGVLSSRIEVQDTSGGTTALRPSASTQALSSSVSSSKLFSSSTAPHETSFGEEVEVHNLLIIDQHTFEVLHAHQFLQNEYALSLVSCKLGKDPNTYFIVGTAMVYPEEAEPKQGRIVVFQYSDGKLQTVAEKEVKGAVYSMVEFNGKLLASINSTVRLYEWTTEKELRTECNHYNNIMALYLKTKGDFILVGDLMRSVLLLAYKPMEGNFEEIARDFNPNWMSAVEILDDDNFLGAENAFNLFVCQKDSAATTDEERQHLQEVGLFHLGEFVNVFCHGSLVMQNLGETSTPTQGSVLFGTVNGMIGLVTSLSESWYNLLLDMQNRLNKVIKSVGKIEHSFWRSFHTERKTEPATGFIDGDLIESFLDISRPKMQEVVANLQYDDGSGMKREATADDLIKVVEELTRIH
T1 sequence (Q96SW2 whole entry): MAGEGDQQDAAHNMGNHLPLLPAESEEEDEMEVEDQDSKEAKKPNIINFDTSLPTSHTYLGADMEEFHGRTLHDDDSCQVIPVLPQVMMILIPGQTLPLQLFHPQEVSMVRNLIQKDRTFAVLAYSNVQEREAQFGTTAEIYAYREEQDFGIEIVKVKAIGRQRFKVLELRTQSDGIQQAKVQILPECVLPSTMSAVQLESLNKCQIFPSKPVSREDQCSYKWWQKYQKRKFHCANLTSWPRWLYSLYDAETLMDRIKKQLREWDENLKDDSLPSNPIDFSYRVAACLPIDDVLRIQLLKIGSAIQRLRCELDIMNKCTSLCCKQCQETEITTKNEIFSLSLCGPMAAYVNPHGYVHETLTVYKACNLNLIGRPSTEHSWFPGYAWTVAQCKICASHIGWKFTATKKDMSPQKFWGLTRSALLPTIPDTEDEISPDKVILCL
Experimental: FIG. 25A and FIG. 25B illustrate that Compound 2 induced Ikaros degradation in CD3+ T cells from peripheral blood of relapsed/refractory multiple myeloma patients after (FIG. 25A) the once daily (QD) 1-10, 15-24/28 schedule, or (FIG. 25B) the twice daily (BID) 1-3, 15-17/28 schedule.
Ikaros expression was measured by flow cytometry in CD3+ T cells before and during Compound 2 treatment in two different dosing schedules (QD administration on days 1 to 10 and days 15 to 24 of a 28 day cycle, and BID administration on days 1 to 3 and days 15 to 17 of a 28 day cycle).

sFLC = assay: Phase 1 study, serum free light chain (sFLC); format: in vivo, human; conditions: two subjects; during the first cycle of treatment
From the text: (§3) This is an open-label, multi-center, international, Phase 1 study to assess the safety, PK/PD and preliminary efficacy of Compound 2 in combination with dexamethasone in subjects with RRMM.
Serum samples were taken before and during Compound 2 treatment at specified time points. Serum free light chain (sFLC) can be used as an efficacy measurement in multiple myeloma. The short half-life of sFLC provides an opportunity to follow the dynamic effect of compound treatment on disease burden. […] The extent of decrease from baseline and duration of the effect may predict response to treatment with Compound 2.

NCI-H929 = assay: Tumor cell lysis by anti-CD3-activated, compound-treated PBMCs, co-culture with untreated NCI-H929; format: cell-based; conditions: Homo sapiens; lenalidomide-sensitive NCI-H929, untreated; 24-hour co-culture
Aiolos = target: T2, Aiolos (Homo sapiens, UniProt Q96SW2+Q9UKT9); assay: Phase 1 study, Aiolos expression by flow cytometry in CD3+ T cells; format: in vivo; conditions: QD days 1-10, 15-24/28 and BID days 1-3, 15-17/28; recovered during dosing interruptions
T2 construct: expressed in transfected cells; host or cells: DF15 multiple myeloma cells
T2 sequence (Q9UKT9 whole entry): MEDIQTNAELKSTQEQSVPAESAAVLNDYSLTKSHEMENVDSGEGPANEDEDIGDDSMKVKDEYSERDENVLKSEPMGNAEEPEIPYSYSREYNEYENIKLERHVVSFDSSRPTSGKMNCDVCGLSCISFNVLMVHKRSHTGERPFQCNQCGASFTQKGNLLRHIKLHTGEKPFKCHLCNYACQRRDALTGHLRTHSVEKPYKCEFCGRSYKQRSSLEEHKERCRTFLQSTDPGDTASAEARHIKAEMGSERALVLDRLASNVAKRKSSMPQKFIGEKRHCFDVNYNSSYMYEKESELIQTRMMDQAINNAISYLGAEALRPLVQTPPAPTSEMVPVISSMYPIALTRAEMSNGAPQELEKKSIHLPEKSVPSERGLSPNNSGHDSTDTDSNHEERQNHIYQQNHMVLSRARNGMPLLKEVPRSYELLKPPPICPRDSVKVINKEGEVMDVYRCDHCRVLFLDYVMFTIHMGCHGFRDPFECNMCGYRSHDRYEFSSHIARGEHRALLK
T2 sequence (Q96SW2 whole entry): as the sequence (Q96SW2 whole entry) above
T2 sequence (Q16531 2-1140, further chain): as the sequence (Q16531 2-1140, further chain) above
Experimental: FIG. 24A and FIG. 24B illustrate that Compound 2 induces Aiolos degradation in CD3+ T cells from peripheral blood of relapsed/refractory multiple myeloma patients after (FIG. 24A) the once daily (QD) 1-10, 15-24/28 schedule, or (FIG. 24B) the twice daily (BID) 1-3, 15-17/28 schedule.
Aiolos expression was measured by flow cytometry in CD3+ T cells before and during Compound 2 treatment in two different dosing schedules (QD administration on days 1 to 10 and days 15 to 24 of a 28 day cycle, and BID administration on days 1 to 3 and days 15 to 17 of a 28 day cycle).

Ikaros [3] = target: T1, Ikaros; assay: Ikaros degradation in CD4+ T cells; format: cell-based; design: The effects of Compound 2 on the degradation of Ikaros in CD4+ and CD8+ T cells; endogenous in cells; host or cells: CD4+ and CD8+ T cells of healthy donors; CD34+ bone marrow cells of healthy donors; CD3+ T cells of multiple myeloma patients; conditions: 24 hours, read-out: Ikaros degradation IC50
Experimental: FIG. 22A-FIG. 22C illustrate that Compound 2 induces degradation of Ikaros in CD4+ T cells. […] Data shown are an average from two donors and are represented as MFI normalized to DMSO control.
(§4) The effects of Compound 2 on the degradation of Ikaros in CD4+ and CD8+ T cells over a 72 hour time course were investigated. The ability of Compound 2 to induce effector cytokine release correlated with degradation of Ikaros in CD4+ T cells, a known transcriptional repressor of IL-2 (FIG. 22A-FIG. 22C). […] The ability of Compound 2 to degrade Ikaros was also observed at the 48 and 72 hour time point in both CD4+(FIG. 22B and FIG. 22C) and CD8+ (data not shown) T cell populations. […] Thus, Ikaros and Aiolos can serve as biomarkers of T-cell activation.

sBCMA = assay: Phase 1 study, sBCMA in serum by ELISA; format: in vivo, human; conditions: one subject; with dexamethasone
Experimental: as §3
Serum samples were taken before and during Compound 2 treatment at specified time points. The expression of sBCMA was measured by an ELISA assay.

interferon gamma (IFN-γ) = assay: IFN-γ production by TCR-activated healthy PBMCs; format: cell-based, human; conditions: 24 hours
Experimental: as §1, §2

Ikaros [4] = target: T1, Ikaros; assay: Ikaros degradation in CD8+ T cells; format: cell-based; design: The effects of Compound 2 on the degradation of Ikaros in CD4+ and CD8+ T cells; endogenous in cells; host or cells: CD4+ and CD8+ T cells of healthy donors; CD34+ bone marrow cells of healthy donors; CD3+ T cells of multiple myeloma patients; conditions: 24 hours (data not shown), read-out: Ikaros degradation IC50
Experimental: as §4

## N#Cc1ccc(N2CCN(Cc3ccc(COc4cccc5c4CN([C@H]4CCC(=O)NC4=O)C5=O)cc3)CC2)c(F)c1 [Compound 2, (S)-4-(4-(4-(((2-(2,6-dioxopiperidin-3-yl)-1-oxoisoindolin-4-yl)oxy)methyl)benzyl)piperazin-1-yl)-3-fluorobenzonitrile]
[1]
  peak TNF-α production above the vehicle control: 2 fold
Ikaros [2]
  Ikaros degradation in CD3+ T cells: dose dependent
sFLC
  decrease in sFLC: > 80%
NCI-H929
  IC50: 5 nM
Aiolos
  Aiolos degradation in CD3+ T cells: dose dependent
Ikaros [3]
  DC50: 0.3 nM
sBCMA
  decrease in sBCMA from baseline: > 80%
Interferon gamma (IFN-γ)
  peak IFN-γ production above the vehicle control: 4.5 fold
Ikaros [4]
  DC50: 0.5 nM
